Measurements reported in ChEMBL document CHEMBL3868595, “Plazomicin is effective in a non-human primate pneumonic plague model” (Bioorg Med Chem, 2016).

Tests used:
[1] = system: Yersinia pestis; test: (§1) Antibacterial activity against Yersinia pestis Colorado 92 infected in African green monkey B6127 model assessed as bacterial burden in brain at 25 mg/kg, iv administered within 6 hrs post onset of sustained fever as 30 mins infusion for 10 days (reference value: 1.9 10^6CFU/g); type: functional, CO92
[2] = system: African green monkey; test: Toxicity in African green monkey B5994 model infected with Yersinia pestis Colorado 92 assessed as serum alanine aminotransferase level at 25 mg/kg, iv administered within 6 hrs post onset of sustained fever as 30 mins infusion for 10 days (reference value: 62 IU/L); type: organism-based; settings: chlorocebus sabaeus, in vivo
[3] = system: African green monkey; test: Toxicity in African green monkey 7972 model infected with Yersinia pestis Colorado 92 assessed as serum lactate dehydrogenase level at 25 mg/kg, iv administered within 6 hrs post onset of sustained fever as 30 mins infusion for 10 days (reference value: 381 IU/L); type: organism-based; settings: chlorocebus sabaeus, in vivo
[4] = Cmax in African green monkey blood at 35 mg/kg administered as iv infusion twice daily for 7 consecutive days measured on day 1 by LC-MS/MS analysis; type: ADME, organism-based; set-up: dose 35 mg/kg, route intravenous; settings: chlorocebus aethiops
[5] = system: Yersinia pestis; test: as §1, with “B6783” for “B6127”, “tracheobronchial lymph nodes” for “brain”, “12.5” for “25”, “5” for “10”, “7.7 10^9CFU/g)” for “1.9 10^6CFU/g)”; type: functional, CO92, Lymph node
[6] = system: Yersinia pestis; test: (§2) Antibacterial activity against Yersinia pestis Colorado 92 infected in African green monkey B6469 model assessed as bacterial burden in tracheobronchial lymph nodes at 25 mg/kg, iv administered within 6 hrs post onset of sustained fever as 30 mins infusion for 5 days (reference value: 7.7 10^9CFU/g); type: functional, organism-based; settings: CO92, Lymph node
[7] = system: Yersinia pestis; test: Antibacterial activity against Yersinia pestis Colorado 92 infected in African green monkey C2149 model assessed as bacterial burden in liver at 6.25 mg/kg, iv administered within 6 hrs post onset of sustained fever as 30 mins infusion for 5 days (reference value: 5.2 10^8CFU/g); type: functional, CO92
[8] = system: African green monkey; test: Toxicity in African green monkey 8067 model infected with Yersinia pestis Colorado 92 assessed as serum alanine aminotransferase level at 25 mg/kg, iv administered within 6 hrs post onset of sustained fever as 30 mins infusion for 10 days (reference value: 45 IU/L); type: organism-based; settings: chlorocebus sabaeus, in vivo
[9] = system: African green monkey; test: Toxicity in African green monkey B6428 model infected with Yersinia pestis Colorado 92 assessed as serum lactate dehydrogenase level at 25 mg/kg, iv administered within 6 hrs post onset of sustained fever as 30 mins infusion for 10 days (reference value: 238 IU/L); type: organism-based; settings: chlorocebus sabaeus, in vivo
[10] = system: Yersinia pestis; test: Antibacterial activity against Yersinia pestis Colorado 92 infected in African green monkey B6127 model assessed as bacterial burden in lung at 25 mg/kg, iv administered within 6 hrs post onset of sustained fever as 30 mins infusion for 10 days (reference value: 7.7 10^8CFU/g); type: functional, organism-based; settings: CO92
[11] = system: African green monkey; test: Toxicity in African green monkey B6127 model infected with Yersinia pestis Colorado 92 assessed as stomach ulcer at 25 mg/kg, iv administered within 6 hrs post onset of sustained fever as 30 mins infusion for 10 days measured by hematoxylin staining based assay; type: organism-based; settings: chlorocebus sabaeus, in vivo
[12] = system: Yersinia pestis; test: Antibacterial activity against Yersinia pestis Colorado 92 infected in African green monkey B6988 model assessed as bacterial burden in lung at 6.25 mg/kg, iv administered within 6 hrs post onset of sustained fever as 30 mins infusion for 5 days (reference value: 7.7 10^8CFU/g); type: functional, CO92
[13] = system: Yersinia pestis; test: Antibacterial activity against Yersinia pestis Colorado 92 infected in African green monkey assessed as survival of monkey at 6.25 mg/kg, iv administered within 6 hrs post onset of sustained fever as 30 mins infusion for 5 days; type: functional; settings: CO92, iv
[14] = system: African green monkey; test: Toxicity in African green monkey B6127 model infected with Yersinia pestis Colorado 92 assessed as tubule damage at 25 mg/kg, iv administered within 6 hrs post onset of sustained fever as 30 mins infusion for 10 days by hematoxylin staining based assay; type: organism-based; settings: chlorocebus sabaeus, in vivo
[15] = system: Yersinia pestis; test: Antibacterial activity against Yersinia pestis Colorado 92 infected in African green monkey B6436 model assessed as bacterial burden in tracheobronchial lymph nodes at 25 mg/kg, iv administered within 6 hrs post onset of sustained fever as 30 mins infusion for 5 days (reference value: 7.7 10^9CFU/g); type: functional, CO92, Lymph node
[16] = system: Yersinia pestis; test: Antibacterial activity against Yersinia pestis Colorado 92 infected in African green monkey B6889 model assessed as bacterial burden in kidney at 6.25 mg/kg, iv administered within 6 hrs post onset of sustained fever as 30 mins infusion for 5 days (reference value: 7.1 10^7CFU/g); type: functional, CO92
[17] = system: African green monkey; test: Toxicity in African green monkey B6127 model infected with Yersinia pestis Colorado 92 assessed as elevation of blood urea nitrogen at 25 mg/kg, iv administered within 6 hrs post onset of sustained fever as 30 mins infusion for 10 days; type: organism-based; settings: chlorocebus sabaeus, in vivo
[18] = system: African green monkey; test: Toxicity in African green monkey B6408 model infected with Yersinia pestis Colorado 92 assessed as serum lactate dehydrogenase level at 25 mg/kg, iv administered within 6 hrs post onset of sustained fever as 30 mins infusion for 10 days (reference value: 249 IU/L); type: organism-based; settings: chlorocebus sabaeus, in vivo
[19] = system: African green monkey; test: Toxicity in African green monkey 7337 model infected with Yersinia pestis Colorado 92 assessed as blood urea nitrogen level at 25 mg/kg, iv administered within 6 hrs post onset of sustained fever as 30 mins infusion for 10 days (reference value: 15 mg/dl); type: organism-based; settings: chlorocebus sabaeus, in vivo
[20] = system: African green monkey; test: Toxicity in African green monkey 7653 model infected with Yersinia pestis Colorado 92 assessed as serum alanine aminotransferase level at 25 mg/kg, iv administered within 6 hrs post onset of sustained fever as 30 mins infusion for 10 days (reference value: 50 IU/L); type: organism-based; settings: chlorocebus sabaeus, in vivo
[21] = system: Yersinia pestis; test: Antibacterial activity against Yersinia pestis Colorado 92 infected in African green monkey C2083 model assessed as bacterial burden in liver at 12.5 mg/kg, iv administered within 6 hrs post onset of sustained fever as 30 mins infusion for 5 days (reference value: 5.2 10^8CFU/g); type: functional, CO92
[22] = Toxicity in African green monkey B6408 model infected with Yersinia pestis Colorado 92 assessed as total white blood cell count at 25 mg/kg, iv administered within 6 hrs post onset of sustained fever as 30 mins infusion for 10 days (reference value: 6.9 10^3/microL); type: organism-based; settings: chlorocebus aethiops, in vivo
[23] = system: Yersinia pestis; test: Antibacterial activity against Yersinia pestis Colorado 92 infected in African green monkey B6106 model assessed as bacterial burden in liver at 25 mg/kg, iv administered within 6 hrs post onset of sustained fever as 30 mins infusion for 5 days (reference value: 5.2 10^8CFU/g); type: functional, CO92
[24] = system: Yersinia pestis; test: Antibacterial activity against Yersinia pestis Colorado 92 infected in African green monkey C2149 model assessed as bacterial burden in spleen at 6.25 mg/kg, iv administered within 6 hrs post onset of sustained fever as 30 mins infusion for 5 days (reference value: 1.6 10^9CFU/g); type: functional, CO92
[25] = system: Yersinia pestis; test: as §2, with “C2149” for “B6469”, “6.25” for “25”; type: functional, CO92, Lymph node
[26] = Toxicity in African green monkey B6428 model infected with Yersinia pestis Colorado 92 assessed as total white blood cell count at 25 mg/kg, iv administered within 6 hrs post onset of sustained fever as 30 mins infusion for 10 days (reference value: 6.2 10^3/microL); type: organism-based; settings: chlorocebus aethiops, in vivo

## CN[C@@H]1[C@@H](O)[C@@H](O[C@@H]2[C@@H](O)[C@H](O[C@H]3OC(CNCCO)=CC[C@H]3N)[C@@H](N)C[C@H]2NC(=O)[C@@H](O)CCN)OC[C@]1(C)O [PLAZOMICIN]
[1]
  Activity: 39 CFU/g
[2]
  Activity: 46 IU/L
[3]
  Activity: 398 IU/L
[4]
  Cmax: 176 µg/mL
[5]
  Activity: 6.3 ×10⁹ CFU/g
[6]
  Activity: Below limit of detection
[7]
  Activity: 1 ×10⁶ CFU/g
[8]
  Activity: 50 IU/L
[9]
  Activity: 299 IU/L
[10]
  Activity: Below limit of detection
[11]
  Activity: Toxic
[12]
  Activity: 3.2 ×10⁸ CFU/g
[13]
  survival at 6.25 mg/kg: 17%
[14]
  Activity: Toxic
[15]
  Activity: 30 CFU/g
[16]
  Activity: 1.1 ×10⁶ CFU/g
[17]
  Activity: Toxic
[18]
  Activity: 304 IU/L
[19]
  Activity: 18 mg/dL
[20]
  Activity: 48 IU/L
[21]
  Activity: 4.5 ×10⁹ CFU/g
[22]
  Activity: 5.5 ×10³ /uL
[23]
  Activity: 95 CFU/g
[24]
  Activity: 30 CFU/g
[25]
  Activity: 1 ×10⁹ CFU/g
[26]
  Activity: 6 ×10³ /uL
